Laboratory results as given in ChEMBL document CHEMBL1139512, “Further studies on the interaction of the 5-hydroxytryptamine3 (5-HT3) receptor with arylpiperazine ligands. development of a new 5-HT3 receptor ligand showing potent acetylcholinesterase inhibitory properties” (J Med Chem, 2005).

Experiments:
[1] = target: T1, Serotonin 3 (5-HT3) receptor (Rattus norvegicus, UniProt P35563+Q9JJ16)
T1 sequence (P35563 whole entry): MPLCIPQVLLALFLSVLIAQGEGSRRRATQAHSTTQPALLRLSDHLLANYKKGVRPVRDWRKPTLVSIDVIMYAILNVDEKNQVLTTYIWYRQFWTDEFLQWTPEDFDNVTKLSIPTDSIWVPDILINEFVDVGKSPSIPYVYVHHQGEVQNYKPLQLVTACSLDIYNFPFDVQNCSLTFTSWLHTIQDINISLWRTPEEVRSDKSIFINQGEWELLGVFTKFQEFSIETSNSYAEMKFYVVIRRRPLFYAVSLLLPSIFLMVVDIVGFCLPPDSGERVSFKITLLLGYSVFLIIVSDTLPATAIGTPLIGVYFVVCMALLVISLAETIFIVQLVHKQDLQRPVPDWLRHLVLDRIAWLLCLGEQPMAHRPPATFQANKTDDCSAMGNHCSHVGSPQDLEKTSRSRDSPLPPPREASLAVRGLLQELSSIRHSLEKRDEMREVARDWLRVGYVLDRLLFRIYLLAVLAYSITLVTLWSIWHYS
T1 sequence (Q9JJ16 whole entry): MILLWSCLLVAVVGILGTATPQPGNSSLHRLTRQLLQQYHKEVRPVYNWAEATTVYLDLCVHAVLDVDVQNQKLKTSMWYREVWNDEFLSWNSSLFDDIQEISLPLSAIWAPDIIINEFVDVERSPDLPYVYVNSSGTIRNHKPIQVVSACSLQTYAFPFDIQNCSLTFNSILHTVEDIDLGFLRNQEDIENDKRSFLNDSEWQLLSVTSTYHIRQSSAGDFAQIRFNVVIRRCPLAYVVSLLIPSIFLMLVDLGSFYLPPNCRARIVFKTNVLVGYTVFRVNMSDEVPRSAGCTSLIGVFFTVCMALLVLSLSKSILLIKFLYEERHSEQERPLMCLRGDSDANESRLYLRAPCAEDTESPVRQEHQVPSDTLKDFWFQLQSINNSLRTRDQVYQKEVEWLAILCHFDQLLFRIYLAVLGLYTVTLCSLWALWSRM

[2] = target: T2, Cholinesterase (Homo sapiens, UniProt P06276); assay: Inhibitory concentration against butyrylcholinesterase
T2 sequence (P06276 whole entry): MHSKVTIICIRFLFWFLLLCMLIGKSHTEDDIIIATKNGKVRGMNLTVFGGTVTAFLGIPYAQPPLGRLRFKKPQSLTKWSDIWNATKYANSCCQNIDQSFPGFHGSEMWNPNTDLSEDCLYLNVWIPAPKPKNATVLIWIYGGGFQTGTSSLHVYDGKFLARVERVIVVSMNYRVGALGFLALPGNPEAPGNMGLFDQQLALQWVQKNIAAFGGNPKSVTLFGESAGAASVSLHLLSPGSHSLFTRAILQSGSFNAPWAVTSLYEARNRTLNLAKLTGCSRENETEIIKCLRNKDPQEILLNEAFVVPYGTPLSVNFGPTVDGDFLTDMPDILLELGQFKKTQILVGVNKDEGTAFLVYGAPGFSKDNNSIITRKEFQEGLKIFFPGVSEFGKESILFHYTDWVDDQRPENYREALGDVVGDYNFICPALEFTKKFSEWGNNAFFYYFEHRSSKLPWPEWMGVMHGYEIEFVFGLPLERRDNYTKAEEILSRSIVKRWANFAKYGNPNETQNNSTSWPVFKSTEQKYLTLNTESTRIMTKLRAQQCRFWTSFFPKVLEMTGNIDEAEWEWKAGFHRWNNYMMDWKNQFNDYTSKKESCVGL

[3] = target: T3, Acetylcholinesterase (Homo sapiens, UniProt P22303)
T3 sequence (P22303 whole entry): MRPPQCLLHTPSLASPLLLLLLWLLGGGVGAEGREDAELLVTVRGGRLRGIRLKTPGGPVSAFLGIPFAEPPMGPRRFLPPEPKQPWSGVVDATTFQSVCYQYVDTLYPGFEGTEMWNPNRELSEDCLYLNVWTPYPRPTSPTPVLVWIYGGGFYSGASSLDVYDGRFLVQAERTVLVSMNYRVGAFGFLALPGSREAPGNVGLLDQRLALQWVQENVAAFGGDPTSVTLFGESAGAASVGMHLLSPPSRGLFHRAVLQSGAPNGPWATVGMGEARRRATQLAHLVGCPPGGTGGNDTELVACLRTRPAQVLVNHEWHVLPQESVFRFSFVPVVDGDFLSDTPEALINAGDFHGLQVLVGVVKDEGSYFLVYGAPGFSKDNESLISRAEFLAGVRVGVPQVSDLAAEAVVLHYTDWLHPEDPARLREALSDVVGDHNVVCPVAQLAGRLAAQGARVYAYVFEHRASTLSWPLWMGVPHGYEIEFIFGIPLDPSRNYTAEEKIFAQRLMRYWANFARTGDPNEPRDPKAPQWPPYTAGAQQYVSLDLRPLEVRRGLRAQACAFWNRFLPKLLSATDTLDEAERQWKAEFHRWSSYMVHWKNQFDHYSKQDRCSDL
Description: (§1) Inhibitory concentration against human acetylcholinesterase

[4] = target: T2, Cholinesterase
[5] = target: T3, Acetylcholinesterase; remark: listed apart in the source
Description: as §1

Compound	Ki [1] [nM]	further results
CCCN(CCC)C(=O)c1cc(N2CCN(C)CC2)nc2ccccc12	0.68	
CCOC(=O)c1cc(N2CCN(C)CC2)nc2ccccc12	0.85	
Cc1c(N2CCN(C)CC2)nc2ccccc2c1C(=O)N(C)c1ccc(Cl)cc1	13	
CCCCCCN(CCCCCC)C(=O)c1c(C)c(N2CCN(C)CC2)nc2ccccc12	188	
Cc1c(Cl)nc2ccccc2c1C(=O)NCCCCCCCNc1c2c(nc3ccccc13)CCCC2		IC50 [2]: 32 nM; IC50 [3]: 3 nM
CCCc1c(N2CCN(C)CC2)nc2ccccc2c1C(=O)N(C)Cc1ccccc1	14	
CCCCN(CCCC)C(=O)c1c(C)c(N2CCN(C)CC2)nc2ccccc12	0.78	
Cc1c(N2CCN(C)CC2)nc2ccccc2c1C(=O)N(C)Cc1ccccc1	0.55	IC50 [4]: > 10000 nM; IC50 [5]: > 10000 nM
CN1CCN(c2cc(C(=O)N(C)Cc3ccccc3)c3ccccc3n2)CC1	0.41	
CCN(CC)C(=O)c1cc(N2CCN(C)CC2)nc2ccccc12	1.6	
CCOC(=O)c1c(C)c(N2CCN(C)CC2)nc2ccccc12	0.43	IC50 [4]: > 10000 nM; IC50 [5]: > 10000 nM
CCc1c(N2CCN(C)CC2)nc2ccccc2c1C(=O)N(C)Cc1ccccc1	10	
CN1CCN(c2nc3ccccc3c3c2CN(Cc2ccccc2)C3=O)CC1	6.2	
Cc1c(N2CCN(C)CC2)nc2ccccc2c1C(=O)N(C(C)C)C(C)C	2.2	
Cc1c(N2CCN(C)CC2)nc2ccccc2c1C(=O)N1CCCC1	1.6	
CCCCCN(CCCCC)C(=O)c1c(C)c(N2CCN(C)CC2)nc2ccccc12	19	
CCOC(=O)c1c(C)c(N2CCNCC2)nc2ccccc12	0.56	
Cc1c(N2CCN(C)CC2)nc2ccccc2c1C(=O)NCCCCCCCNc1c2c(nc3ccccc13)CCCC2	5.6	IC50 [2]: 40 nM; IC50 [3]: 4.1 nM
Cc1c(N2CCN(C)CC2)nc2ccccc2c1C(=O)c1ccccc1	0.84	

Continued, in another order:

Ki [1] [nM]	Compound	further results
1.1	CCCN(CCC)C(=O)c1c(CC)c(N2CCN(C)CC2)nc2ccccc12	
0.17	CCOC(=O)c1c(N2CCN(C)CC2)nc2ccccc2c1C	
2.7	CN1CCN(c2nc3ccccc3c(CO)c2CO)CC1	
0.11	CCCN(CCC)C(=O)c1c(C)c(N2CCN(C)CC2)nc2ccccc12	
0.21	CCOC(=O)c1c(CC)c(N2CCN(C)CC2)nc2ccccc12	
0.51	CCc1c(N2CCN(C)CC2)nc2ccccc2c1C(=O)N(CC)CC	
0.08	CCCc1c(N2CCN(C)CC2)nc2ccccc2c1C(=O)OCC	
0.37	CCN(CC)C(=O)c1c(C)c(N2CCN(C)CC2)nc2ccccc12	
0.92	CCCc1c(N2CCN(C)CC2)nc2ccccc2c1C(=O)N(CC)CC	
2.1	CN1CCN(c2nc3ccccc3c3c2CN(C)C3=O)CC1	
3.6	CCCN1Cc2c(N3CCN(C)CC3)nc3ccccc3c2C1=O	
0.24	CN1CCN(c2nc3ccccc3c3c2CCC3)CC1	
4.2	CCC(C)N1Cc2c(N3CCN(C)CC3)nc3ccccc3c2C1=O (stereo not drawn)	
2.4	CN1CCN(c2nc3ccccc3c3c2COC3=O)CC1	
3	CCN1Cc2c(N3CCN(C)CC3)nc3ccccc3c2C1=O	
0.45	C#CCN(C)C(=O)c1c(C)c(N2CCN(C)CC2)nc2ccccc12	
1.2	CCCc1c(N2CCN(C)CC2)nc2ccccc2c1C(=O)N(CCC)CCC	
